The assay concerns the target FAS (Homo sapiens, UniProt P49327). The experiment in a line: FAS assay (Assay #1 residual NADPH detection or Assay #2 CoA detection with thio-reactive coumarin dye). To be noted: tested generally according to the assays described (Assay #1 or #2); in at least one experimental run; read-out: pIC50 value (inhibition of FAS) (converted). The class given is biochemical. Here is the method:
FAS activity was measured through one of the two following assays.
Inhibition of FAS activity can be measured based on the detection of residual NADPH substrate after the FAS assay is quenched. This assay is run as a 10 μL endpoint assay in 384-well format, where the reaction contains 20 μM malonyl-CoA, 2 μM acetyl-CoA, 30 μM NADPH and 40 nM FAS in 50 mM sodium phosphate, pH 7.0. The assay is run by sequentially dispensing 5 μl of a malonyl-CoA solution, then enzyme solution (containing the acetyl-CoA, and NADPH) into a black, low volume assay plate (Greiner 784076) pre-dispensed with […] compound solutions in DMSO. The reaction is incubated at ambient temperature for 60 minutes, then quenched with 5 μL of a developing solution composed of 90 μM resazurin, 0.3 IU/ml diaphorase in 50 mM sodium phosphate, pH 7.0. The developed reaction is read on a Molecular Devices Analyst or Acquest (or equivalent) plate reader using a 530 nm excitation wavelength filter, a 580 nm emission filter, and 561 nm dichroic filter. The test compounds are prepared in neat DMSO at a concentration of 10 mM. For inhibition curves, compounds are diluted using a three-fold serial dilution and tested at 11 concentrations (e.g. 25 μM-0.42 nM). Curves are analysed using ActivityBase and XLfit, and results are expressed as pIC50 values.
Inhibition of FAS can also be quantified based on the detection of the CoA products with a thio-reactive coumarin dye. This assay is run as a 10 μL endpoint assay in 384-well format, where the reaction contains 20 μM malonyl-CoA, 20 μM acetyl-CoA, 40 μM NADPH and 2 nM FAS in 50 mM sodium phosphate, pH 7.0, and 0.04% Tween-20. The assay is run by adding 5 μL enzyme solution to a black, low volume assay plate (Greiner 784076) pre-dispensed with 100 nl compound solutions in DMSO. After 30 minutes, […] substrate is added, and the reaction incubated at ambient temperature for an additional 60 minutes. The reaction is then quenched with 10 μL of 6M guanidine-HCl containing 50 μM CPM (7-diethylamino-3-(4′-maleimidylphenyl)-4-methylcoumarin (CPM; thio-reactive dye), and incubated for 30 minutes. The plate is read on an Envision (PerkinElmer) or equivalent plate reader using a 380 nm excitation wavelength filter, and a 486 nm emission filter. Data fitting and compound preparations are done as described above.
Sequence of FAS (P49327 whole entry): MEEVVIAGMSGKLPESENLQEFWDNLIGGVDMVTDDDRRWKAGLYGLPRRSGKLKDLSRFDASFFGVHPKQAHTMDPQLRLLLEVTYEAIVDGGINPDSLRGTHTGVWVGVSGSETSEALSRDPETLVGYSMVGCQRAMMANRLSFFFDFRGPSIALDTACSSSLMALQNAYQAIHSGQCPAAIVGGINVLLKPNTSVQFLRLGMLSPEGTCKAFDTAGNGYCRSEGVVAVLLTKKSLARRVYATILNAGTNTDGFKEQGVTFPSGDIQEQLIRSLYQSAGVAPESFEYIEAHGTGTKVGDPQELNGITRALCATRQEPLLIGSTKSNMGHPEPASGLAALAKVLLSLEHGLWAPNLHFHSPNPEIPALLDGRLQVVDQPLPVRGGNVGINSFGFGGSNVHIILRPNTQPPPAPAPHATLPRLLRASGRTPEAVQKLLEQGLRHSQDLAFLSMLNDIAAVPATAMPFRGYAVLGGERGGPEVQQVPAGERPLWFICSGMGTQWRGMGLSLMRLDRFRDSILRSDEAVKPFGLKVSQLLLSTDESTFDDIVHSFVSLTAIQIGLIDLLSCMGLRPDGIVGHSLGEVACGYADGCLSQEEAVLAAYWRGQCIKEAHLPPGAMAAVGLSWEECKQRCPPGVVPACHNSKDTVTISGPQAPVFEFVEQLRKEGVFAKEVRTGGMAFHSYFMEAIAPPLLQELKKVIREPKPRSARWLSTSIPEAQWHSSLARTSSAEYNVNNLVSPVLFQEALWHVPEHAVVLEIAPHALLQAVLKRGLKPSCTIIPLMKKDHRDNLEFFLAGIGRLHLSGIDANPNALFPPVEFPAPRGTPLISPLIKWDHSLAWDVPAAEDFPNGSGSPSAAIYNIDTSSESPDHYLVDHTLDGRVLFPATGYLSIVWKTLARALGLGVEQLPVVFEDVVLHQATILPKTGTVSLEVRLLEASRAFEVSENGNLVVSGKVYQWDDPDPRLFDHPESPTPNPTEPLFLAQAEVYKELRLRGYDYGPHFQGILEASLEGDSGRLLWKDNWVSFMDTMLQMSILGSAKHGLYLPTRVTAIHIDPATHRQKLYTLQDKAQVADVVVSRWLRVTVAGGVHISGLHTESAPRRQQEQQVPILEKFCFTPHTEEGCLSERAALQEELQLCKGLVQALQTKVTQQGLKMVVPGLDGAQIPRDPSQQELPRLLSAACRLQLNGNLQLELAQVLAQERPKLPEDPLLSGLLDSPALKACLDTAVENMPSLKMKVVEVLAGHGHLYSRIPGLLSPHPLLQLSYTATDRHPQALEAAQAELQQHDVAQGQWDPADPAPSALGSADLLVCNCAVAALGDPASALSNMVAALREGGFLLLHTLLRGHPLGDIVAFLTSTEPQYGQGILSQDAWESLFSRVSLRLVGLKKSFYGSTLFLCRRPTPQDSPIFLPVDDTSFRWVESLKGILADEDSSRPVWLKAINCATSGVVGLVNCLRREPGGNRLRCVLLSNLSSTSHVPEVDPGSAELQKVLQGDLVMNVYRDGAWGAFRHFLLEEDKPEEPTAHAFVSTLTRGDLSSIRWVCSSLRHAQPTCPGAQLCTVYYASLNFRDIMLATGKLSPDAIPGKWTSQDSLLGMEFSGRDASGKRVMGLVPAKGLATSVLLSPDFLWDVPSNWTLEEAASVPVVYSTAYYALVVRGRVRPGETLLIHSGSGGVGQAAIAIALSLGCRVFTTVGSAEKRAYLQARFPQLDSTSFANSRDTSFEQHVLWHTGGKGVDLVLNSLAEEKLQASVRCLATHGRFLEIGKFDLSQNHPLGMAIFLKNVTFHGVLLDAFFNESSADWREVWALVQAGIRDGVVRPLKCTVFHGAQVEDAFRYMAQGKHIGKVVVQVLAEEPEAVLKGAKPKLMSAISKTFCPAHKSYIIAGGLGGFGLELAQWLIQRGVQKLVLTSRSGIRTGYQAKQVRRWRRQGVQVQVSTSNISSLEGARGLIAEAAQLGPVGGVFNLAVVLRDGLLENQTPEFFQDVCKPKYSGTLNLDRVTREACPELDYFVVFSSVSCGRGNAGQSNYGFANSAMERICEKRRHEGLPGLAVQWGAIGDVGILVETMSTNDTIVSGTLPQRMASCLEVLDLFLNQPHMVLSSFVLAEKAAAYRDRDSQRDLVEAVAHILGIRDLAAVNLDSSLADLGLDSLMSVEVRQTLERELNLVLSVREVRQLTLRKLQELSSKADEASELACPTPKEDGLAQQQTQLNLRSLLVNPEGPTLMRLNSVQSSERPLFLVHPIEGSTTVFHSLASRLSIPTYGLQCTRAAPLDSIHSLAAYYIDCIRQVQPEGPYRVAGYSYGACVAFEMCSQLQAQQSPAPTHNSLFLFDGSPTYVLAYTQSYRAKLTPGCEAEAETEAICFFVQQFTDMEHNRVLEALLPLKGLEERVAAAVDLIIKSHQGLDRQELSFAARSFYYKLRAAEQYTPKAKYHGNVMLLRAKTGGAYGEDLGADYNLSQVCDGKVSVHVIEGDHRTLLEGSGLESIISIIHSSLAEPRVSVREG
For `O=C(C1CC1)N1CC[C@@H](Cn2c(-c3ccc(-c4ccc5ncsc5c4)cc3)nc3ccccc32)C1` [Example 4, 6-[4-(1-{[(3S)-1-(Cyclopropylcarbonyl)-3-pyrrolidinyl]methyl}-1H-benzimidazol-2-yl)phenyl]-1,3-benzothiazole], the IC50 is 55 nM. The value for `O=C(C1CC1)N1CC[C@@H](Cn2c(-c3ccc(-c4ccc5cc[nH]c5c4)cc3)nc3c(C(F)(F)F)cccc32)C1` [Example 24, 1-{[(3S)-1-(Cyclopropylcarbonyl)-3-pyrrolidinyl]methyl}-2-[4-(1H-indol-6-yl)phenyl]-4-(trifluoromethyl)-1H-benzimidazole] was 49 nM; that for `O=C(C1CC1)N1CC[C@@H](Cn2c(-c3ccc(-c4ccccc4)cc3)nc3c(Br)cccc32)C1` [Example 33, 2-(4-Biphenylyl)-4-bromo-1-{[(3S)-1-(cyclopropylcarbonyl)-3-pyrrolidinyl]methyl}-1H-benzimidazole] was 135 nM.

For the compound `Cc1ccc2c(c1)nc(-c1ccc(-c3ccc4[nH]ncc4c3)cc1)n2C[C@@H]1CCN(C(=O)C2CC2)C1` [Example 49, 5-[4-(1-{[(3S)-1-(Cyclopropylcarbonyl)-3-pyrrolidinyl]methyl}-5-methyl-1H-benzimidazol-2-yl)phenyl]-1H-indazole], the IC50 is 26.9 nM. To `O=C(C1CC1)N1CC[C@@H](Cn2c(-c3ccc(-c4ccc5[nH]ccc5c4)cc3)nc3cc(C(F)(F)F)ccc32)C1` [Example 62, 1-{[(3S)-1-(Cyclopropylcarbonyl)-3-pyrrolidinyl]methyl}-2-[4-(1H-indol-5-yl)phenyl]-5-(trifluoromethyl)-1H-benzimidazole] belongs 30.9 nM; to `COc1ccc2nc(-c3ccc(-c4ccc5cc[nH]c5c4)cc3)n(C[C@@H]3CCN(C(=O)C4CC4)C3)c2c1` [Example 66, 1-{[(3S)-1-(Cyclopropylcarbonyl)-3-pyrrolidinyl]methyl}-2-[4-(1H-indol-6-yl)phenyl]-6-(methyloxy)-1H-benzimidazole], 21.9 nM.

With `Cc1ccc2nc(-c3ccc(-c4ccc5occc5c4)cc3)n(C[C@@H]3CCN(C(=O)C4CC4)C3)c2c1` [Example 83, 2-[4-(1-Benzofuran-5-yl)phenyl]-1-{[(3S)-1-(cyclopropylcarbonyl)-3-pyrrolidinyl]methyl}-6-(methyl)-1H-benzimidazole], the IC50 is 50.1 nM.

In the case of `O=C(C1CC1)N1CC[C@@H](Cn2c(-c3ccc(-c4ccc5cc[nH]c5c4)cc3)nc3ccc(C(F)(F)F)cc32)C1` [Example 88, 1-{[(3S)-1-(Cyclopropylcarbonyl)-3-pyrrolidinyl]methyl}-2-[4-(1H-indol-6-yl)phenyl]-6-(trifluoromethyl)-1H-benzimidazole], the IC50 was 43.7 nM. The value for `CN1CCN(C(=O)c2ccc3nc(-c4ccc(-c5ccc6cc[nH]c6c5)cc4)n(C[C@@H]4CCN(C(=O)C5CC5)C4)c3c2)CC1` [Example 106, 1-{[(3S)-1-(Cyclopropylcarbonyl)-3-pyrrolidinyl]methyl}-2-[4-(1H-indol-6-yl)phenyl]-6-[(4-methyl-1-piperazinyl)carbonyl]-1H-benzimidazole] was 55 nM. As for `CN1CCN(C(=O)c2ccc3nc(-c4ccc(-c5ccc6[nH]ccc6c5)cc4)n(C[C@@H]4CCN(C(=O)C5CC5)C4)c3c2)CC1` [Example 107, 1-{[(3S)-1-(Cyclopropylcarbonyl)-3-pyrrolidinyl]methyl}-2-[4-(1H-indol-5-yl)phenyl]-6-[(4-methyl-1-piperazinyl)carbonyl]-1H-benzimidazole], the IC50 was 10 nM. The value for `O=C(C1CC1)N1CC[C@@H](Cn2c(-c3ccc(-c4ccc(F)cc4)cc3)nc3cccc(C(F)(F)F)c32)C1` [Example 117, 1-{[(3S)-1-(Cyclopropylcarbonyl)-3-pyrrolidinyl]methyl}-2-(4′-fluoro-4-biphenylyl)-7-(trifluoromethyl)-1H-benzimidazole] was 1450 nM.
